Assays:
[1] = target: Granzyme B (Homo sapiens) (UniProt P10144); experiment: Apparent second-order rate constant was determined by the inhibition of Granzyme B with the compound at the concentration 150 mM; ki/Ki(1/M*s), Not inhibited
Staphylococcus aureus = experiment: Apparent second-order rate constant was determined by the inactivation of Staphylococcus aureus V8 proteinase with the compound at the concentration 100 mM(pH 7.4); ki/Ki(1/M*s); type: functional

Chain of Granzyme B (Homo sapiens) (P10144 whole entry): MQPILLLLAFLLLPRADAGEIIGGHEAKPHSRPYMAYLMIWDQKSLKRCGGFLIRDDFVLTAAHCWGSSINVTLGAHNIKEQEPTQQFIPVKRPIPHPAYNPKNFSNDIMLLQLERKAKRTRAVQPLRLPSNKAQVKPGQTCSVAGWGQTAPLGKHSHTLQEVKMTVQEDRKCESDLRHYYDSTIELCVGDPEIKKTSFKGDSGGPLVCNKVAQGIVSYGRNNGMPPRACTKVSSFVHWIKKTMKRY

`CC(=O)N[C@H](CC(=O)O)P(=O)(Oc1ccccc1)Oc1ccccc1` was tested, and the Activity [1] was “No inhibition” and the Activity (Staphylococcus aureus) was 5.

In the case of `CC(=O)N[C@H](CCC(=O)O)P(=O)(Oc1ccccc1)Oc1ccccc1`, the Activity [1] was “No inhibition” and the Activity (Staphylococcus aureus) was 5.3.

From ChEMBL document CHEMBL1130861, “Synthesis and proteinase inhibitory properties of diphenyl phosphonate analogues of aspartic and glutamic acids” (1998)
